Assay results as given in ChEMBL document CHEMBL1132266, “Synthesis and evaluation of 1-position-modified inositol 1,4,5-trisphosphate analogs” (Bioorg Med Chem Lett, 1999).

Target: Inositol 1,4,5-trisphosphate-gated calcium channel ITPR3 (Homo sapiens, UniProt Q14573)
Experiment: Dissociation constant of compound was measured in IP3-binding domain(IBD) of human Inositol 1,4,5-trisphosphate receptor at pH 7.4

Sequence of Inositol 1,4,5-trisphosphate-gated calcium channel ITPR3 (Q14573 whole entry, the tested form may be a part): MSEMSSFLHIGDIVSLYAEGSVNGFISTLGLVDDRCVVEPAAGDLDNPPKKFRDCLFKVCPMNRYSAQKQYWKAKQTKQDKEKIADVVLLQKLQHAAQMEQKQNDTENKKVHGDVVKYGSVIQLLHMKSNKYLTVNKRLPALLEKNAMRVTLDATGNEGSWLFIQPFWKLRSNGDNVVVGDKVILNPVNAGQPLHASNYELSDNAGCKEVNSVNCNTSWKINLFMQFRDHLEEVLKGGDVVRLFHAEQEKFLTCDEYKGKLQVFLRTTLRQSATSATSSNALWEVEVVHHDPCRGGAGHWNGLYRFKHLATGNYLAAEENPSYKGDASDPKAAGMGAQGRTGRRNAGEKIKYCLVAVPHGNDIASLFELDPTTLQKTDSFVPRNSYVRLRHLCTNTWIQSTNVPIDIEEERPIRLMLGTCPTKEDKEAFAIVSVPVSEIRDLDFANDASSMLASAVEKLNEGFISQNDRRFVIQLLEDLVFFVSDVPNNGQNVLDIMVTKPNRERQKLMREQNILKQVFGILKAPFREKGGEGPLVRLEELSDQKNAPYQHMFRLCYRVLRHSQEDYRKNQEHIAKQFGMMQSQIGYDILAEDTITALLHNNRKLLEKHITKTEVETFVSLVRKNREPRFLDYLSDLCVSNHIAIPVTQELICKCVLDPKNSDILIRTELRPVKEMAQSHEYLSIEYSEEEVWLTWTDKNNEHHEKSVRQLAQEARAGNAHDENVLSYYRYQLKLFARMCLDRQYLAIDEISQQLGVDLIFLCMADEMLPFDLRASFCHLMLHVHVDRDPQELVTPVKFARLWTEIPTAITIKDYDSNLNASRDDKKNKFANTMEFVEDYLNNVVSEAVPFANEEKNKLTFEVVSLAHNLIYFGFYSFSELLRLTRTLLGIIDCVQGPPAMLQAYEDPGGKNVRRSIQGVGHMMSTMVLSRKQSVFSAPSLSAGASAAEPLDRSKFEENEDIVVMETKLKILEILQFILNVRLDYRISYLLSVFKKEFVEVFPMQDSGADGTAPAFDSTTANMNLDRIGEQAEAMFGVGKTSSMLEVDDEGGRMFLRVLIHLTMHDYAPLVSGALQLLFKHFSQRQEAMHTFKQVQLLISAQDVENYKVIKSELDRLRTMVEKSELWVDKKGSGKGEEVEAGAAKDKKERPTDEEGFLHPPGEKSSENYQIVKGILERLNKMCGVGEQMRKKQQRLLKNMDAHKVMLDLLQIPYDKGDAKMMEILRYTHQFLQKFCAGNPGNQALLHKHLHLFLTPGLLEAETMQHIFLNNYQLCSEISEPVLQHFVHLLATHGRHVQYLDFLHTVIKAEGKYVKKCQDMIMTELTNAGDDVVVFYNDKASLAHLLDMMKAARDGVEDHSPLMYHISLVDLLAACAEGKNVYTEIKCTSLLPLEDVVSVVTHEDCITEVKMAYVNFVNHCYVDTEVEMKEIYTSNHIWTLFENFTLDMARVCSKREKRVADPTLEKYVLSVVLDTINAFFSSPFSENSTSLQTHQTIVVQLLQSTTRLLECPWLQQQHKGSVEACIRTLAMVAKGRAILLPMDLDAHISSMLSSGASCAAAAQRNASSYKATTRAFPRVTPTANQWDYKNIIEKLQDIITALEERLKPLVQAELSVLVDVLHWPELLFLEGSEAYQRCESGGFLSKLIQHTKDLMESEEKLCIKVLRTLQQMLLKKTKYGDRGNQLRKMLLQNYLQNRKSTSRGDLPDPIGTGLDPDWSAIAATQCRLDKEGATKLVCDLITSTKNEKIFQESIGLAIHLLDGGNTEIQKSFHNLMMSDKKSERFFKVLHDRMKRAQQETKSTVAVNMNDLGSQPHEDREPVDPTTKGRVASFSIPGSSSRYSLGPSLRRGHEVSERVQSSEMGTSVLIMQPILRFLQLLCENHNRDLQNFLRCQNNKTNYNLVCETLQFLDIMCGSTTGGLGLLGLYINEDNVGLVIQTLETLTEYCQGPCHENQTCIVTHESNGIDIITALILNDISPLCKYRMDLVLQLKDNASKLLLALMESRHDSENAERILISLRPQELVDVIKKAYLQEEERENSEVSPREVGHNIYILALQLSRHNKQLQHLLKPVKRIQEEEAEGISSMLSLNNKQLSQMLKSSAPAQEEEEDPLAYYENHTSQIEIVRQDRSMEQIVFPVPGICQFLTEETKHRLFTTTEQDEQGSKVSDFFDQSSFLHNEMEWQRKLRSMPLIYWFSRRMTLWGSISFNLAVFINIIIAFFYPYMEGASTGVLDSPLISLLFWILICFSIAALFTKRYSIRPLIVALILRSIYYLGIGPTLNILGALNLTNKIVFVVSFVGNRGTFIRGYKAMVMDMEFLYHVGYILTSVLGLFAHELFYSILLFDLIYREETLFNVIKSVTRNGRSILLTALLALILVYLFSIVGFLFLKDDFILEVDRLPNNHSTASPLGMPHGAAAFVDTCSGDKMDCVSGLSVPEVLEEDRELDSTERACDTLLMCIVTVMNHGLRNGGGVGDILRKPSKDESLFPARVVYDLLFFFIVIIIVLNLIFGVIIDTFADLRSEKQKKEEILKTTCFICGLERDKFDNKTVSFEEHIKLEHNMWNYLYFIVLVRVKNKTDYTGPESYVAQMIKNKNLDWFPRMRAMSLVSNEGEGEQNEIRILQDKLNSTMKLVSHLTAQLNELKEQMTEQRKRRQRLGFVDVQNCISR

SMILES	Kd
NCCCOP(=O)(O)O[C@@H]1[C@H](O)[C@H](O)[C@@H](OP(=O)(O)O)[C@H](OP(=O)(O)O)[C@H]1O	1120 nM
CN(C)c1ccc(C(=C2C=CC(=[N+](C)C)C=C2)c2ccc(C(=O)NCCCOP(=O)(O)O[C@@H]3[C@H](O)[C@H](O)[C@@H](OP(=O)(O)O)[C@H](OP(=O)(O)O)[C@H]3O)cc2)cc1	1.17 nM
O=C(NCCCOP(=O)(O)O[C@@H]1[C@H](O)[C@H](O)[C@@H](OP(=O)(O)O)[C@H](OP(=O)(O)O)[C@H]1O)Oc1ccc2c(c1)Oc1cc(O)ccc1C21OC(=O)c2ccccc21 (stereo partly drawn)	188 nM
